The values that follow come from patent publication US9808466B2, “Macrocyclic compounds as protein kinase inhibitors” (Fundación Centro Nacional de Investigaciones Oncologicas …, priority 2011, dated 2017).

Read-outs that look alike come from different tables or passages of the source. A value given as a limit tells only on which side of the number the result lay.

The target in experiment [1] is T1, PI3K (p110α/p85α) (Homo sapiens, UniProt P42336).
T1 construct: purchased Carna Biosciences 07CBS-0402A
T1 sequence (P42336 whole entry): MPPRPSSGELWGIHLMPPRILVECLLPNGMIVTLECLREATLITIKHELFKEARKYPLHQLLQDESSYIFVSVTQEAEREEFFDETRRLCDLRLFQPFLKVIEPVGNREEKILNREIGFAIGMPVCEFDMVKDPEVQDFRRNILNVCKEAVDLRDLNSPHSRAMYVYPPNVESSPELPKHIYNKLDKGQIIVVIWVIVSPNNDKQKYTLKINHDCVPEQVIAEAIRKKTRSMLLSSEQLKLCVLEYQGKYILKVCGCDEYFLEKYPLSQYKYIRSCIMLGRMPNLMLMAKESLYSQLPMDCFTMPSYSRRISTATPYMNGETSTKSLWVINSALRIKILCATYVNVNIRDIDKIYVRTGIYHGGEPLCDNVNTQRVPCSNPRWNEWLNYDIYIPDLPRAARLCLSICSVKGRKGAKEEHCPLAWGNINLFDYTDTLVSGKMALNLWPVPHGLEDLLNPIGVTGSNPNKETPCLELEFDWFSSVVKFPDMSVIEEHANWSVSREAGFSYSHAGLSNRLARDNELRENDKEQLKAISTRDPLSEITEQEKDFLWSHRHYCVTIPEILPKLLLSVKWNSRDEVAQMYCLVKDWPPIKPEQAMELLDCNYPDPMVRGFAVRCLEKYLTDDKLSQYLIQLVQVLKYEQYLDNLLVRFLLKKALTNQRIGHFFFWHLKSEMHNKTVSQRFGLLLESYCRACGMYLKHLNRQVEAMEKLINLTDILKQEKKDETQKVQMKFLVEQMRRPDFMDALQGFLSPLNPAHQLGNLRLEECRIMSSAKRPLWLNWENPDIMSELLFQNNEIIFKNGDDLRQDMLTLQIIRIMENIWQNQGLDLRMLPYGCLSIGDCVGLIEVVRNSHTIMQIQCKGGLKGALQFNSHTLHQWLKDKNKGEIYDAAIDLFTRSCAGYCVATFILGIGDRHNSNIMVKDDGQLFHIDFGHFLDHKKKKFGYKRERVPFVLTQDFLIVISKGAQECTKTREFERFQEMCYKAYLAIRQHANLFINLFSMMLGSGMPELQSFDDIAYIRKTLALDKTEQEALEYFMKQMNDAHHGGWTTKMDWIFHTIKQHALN
T1 sequence (P27986 whole entry partner): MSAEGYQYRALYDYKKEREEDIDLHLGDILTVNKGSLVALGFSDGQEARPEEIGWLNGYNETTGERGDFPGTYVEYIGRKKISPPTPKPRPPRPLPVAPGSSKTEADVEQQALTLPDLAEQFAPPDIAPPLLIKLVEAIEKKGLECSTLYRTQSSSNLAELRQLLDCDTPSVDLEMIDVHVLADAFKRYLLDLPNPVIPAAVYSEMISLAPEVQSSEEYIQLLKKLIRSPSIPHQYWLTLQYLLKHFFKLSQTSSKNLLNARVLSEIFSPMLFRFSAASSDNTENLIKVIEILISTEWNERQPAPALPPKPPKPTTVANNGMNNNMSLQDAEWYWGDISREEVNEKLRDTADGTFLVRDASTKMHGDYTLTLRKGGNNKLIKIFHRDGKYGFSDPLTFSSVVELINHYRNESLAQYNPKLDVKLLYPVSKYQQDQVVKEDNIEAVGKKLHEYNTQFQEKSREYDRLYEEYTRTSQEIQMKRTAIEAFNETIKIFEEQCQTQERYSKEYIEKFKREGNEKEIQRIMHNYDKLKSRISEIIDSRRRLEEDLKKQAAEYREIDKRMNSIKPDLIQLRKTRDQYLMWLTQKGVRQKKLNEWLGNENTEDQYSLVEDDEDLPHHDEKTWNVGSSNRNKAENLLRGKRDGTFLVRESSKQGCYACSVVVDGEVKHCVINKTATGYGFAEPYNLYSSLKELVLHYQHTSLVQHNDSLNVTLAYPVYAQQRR
As to the kind of experiment: PI3K activity assay (ADP Hunter Plus). It is filed as biochemical. On the procedure:
The kinase activity was measured by using the commercial ADP Hunter™ Plus assay available from DiscoveRx (#33-016), which is a homogeneous assay to measure the accumulation of ADP, a universal product of kinase activity. […] Reaction was carried out for 1 hour at 25° C. Reagent A and B were sequentially added to the wells and plates were incubated for 30 min at 37° C. Fluorescence counts were read in a Victor instrument (Perkin Elmer) with the recommended settings (544 and 580 nm as excitation and emission wavelengths, respectively). Values were normalized against the control activity included for each enzyme (i.e., 100% PI3 kinase activity, without compound). These values were plotted against the inhibitor concentration and were fit to a sigmoid dose-response curve by using the Graphad software.

Experiment [2] addresses T2, mTOR (Homo sapiens, UniProt P42345).
T2 construct: purchased Invitrogen PV4754
As to the kind of experiment: mTOR assay (LanthaScreen kinase activity assay). It counts as biochemical. On the procedure: The enzymatic mTOR activity was measured using a LanthaScreen™ kinase activity assay (Invitrogen). The enzyme was purchased from Invitrogen (PV4754), as well as the GFP-labeled substrate (4EBP1-GFP; PV4759) and the Tb-anti-p4EBP1(pThr46) antibody (PV4757). The assay was performed in 50 mM HEPES buffer, pH 7.5, containing 1.5 mM MnCl2, 10 mM MgCl2, 1 mM EGTA, 2.5 mM DTT and 0.01% Tween-20. The concentration of the assay components were the following: 0.24 nM mTOR kinase, 400 nM 4EBP1-GFP, […] and serial dilutions of the compound (inhibitor) to be evaluated. After 1 h incubation at room temperature, 20 mM EDTA was used to stop the reaction and terbium-labeled antibody (4 nM) added to detect phosphorylated product. The antibody associates with the phosphorylated product resulting in an increased TR-FRET value. The TR-FRET value (a dimensionless number) was calculated as the ratio of the acceptor signal (GFP, emission at 520 nm) to the donor signal (terbium, emission at 495 nm). Values were plotted against the inhibitor concentration and fitted to a sigmoid dose-response curve using GraphPad software.
Background: TR-FRET usually uses a lanthanide donor and a delayed reading to cut background.

Experiment [3] has as its target T3, PIM-1 (Homo sapiens, UniProt P11309).
T3 construct: histidine tag (C); made in house
As to the kind of experiment: PIM-1 biochemical assay (ADP Hunter). As to conditions: PIM1; read-out: PIM-1 activity, IC50 (semi-quantitative class). From the text: The biochemical assay to measure PIM-1 activity relies on the ADP Hunter assay kit (DiscoveRx Corp., Cat. #90-0077), that determines the amount of ADP as direct product of the kinase enzyme activity.
The enzyme has been expressed and purified in-house as a recombinant human protein with a C-terminal histidine tag. The protein is active and stable.
Assay conditions were as indicated by the kit manufacturers with the following adaptations for the kinase activity step: • Kinase assay buffer and assay volume stay as recommended (15 mM HEPES, pH 7.4, 20 mM NaCl, 1 mM EGTA, 0.02% Tween 20, 10 mM MgCl2 and 0.1 mg/ml bovine γ-globulins/75 μl assay volume) • Incubation time and temperature: 60 min at 30° C. • PIM-1 concentration: 50 pg/μl • ATP concentration: 100 μM • PIM-1 substrate peptide: PIMtide ([…]) (SEQIDNO. 1) • Peptide concentration: 60 μM • Positive control for kinase activity inhibition: 1-10 μM Staurosporine • DMSO concentration have to stay below 2% during the kinase reaction
Assays were performed in either 96 or 384-well plates. The final outcome of the coupled reactions provided by the kit is the release of the fluorescent product Resorufin and has been measured with a multilabel HTS counter VICTOR V (PerkinElmer) using an excitation filter at 544 nm and an emission filter at 580 nm.

Where [4] appears, read: read-out: PI3K alpha activity, IC50 (semi-quantitative class).
Where [5] appears, read: read-out: PI3K alpha actual IC50 (in parentheses).
Setting [6] is: read-out: mTOR activity, IC50 (semi-quantitative class).
Setting [7] is: read-out: mTOR actual IC50 (in parentheses).

T2 sequence (P42345 1360-2549 limits assumed): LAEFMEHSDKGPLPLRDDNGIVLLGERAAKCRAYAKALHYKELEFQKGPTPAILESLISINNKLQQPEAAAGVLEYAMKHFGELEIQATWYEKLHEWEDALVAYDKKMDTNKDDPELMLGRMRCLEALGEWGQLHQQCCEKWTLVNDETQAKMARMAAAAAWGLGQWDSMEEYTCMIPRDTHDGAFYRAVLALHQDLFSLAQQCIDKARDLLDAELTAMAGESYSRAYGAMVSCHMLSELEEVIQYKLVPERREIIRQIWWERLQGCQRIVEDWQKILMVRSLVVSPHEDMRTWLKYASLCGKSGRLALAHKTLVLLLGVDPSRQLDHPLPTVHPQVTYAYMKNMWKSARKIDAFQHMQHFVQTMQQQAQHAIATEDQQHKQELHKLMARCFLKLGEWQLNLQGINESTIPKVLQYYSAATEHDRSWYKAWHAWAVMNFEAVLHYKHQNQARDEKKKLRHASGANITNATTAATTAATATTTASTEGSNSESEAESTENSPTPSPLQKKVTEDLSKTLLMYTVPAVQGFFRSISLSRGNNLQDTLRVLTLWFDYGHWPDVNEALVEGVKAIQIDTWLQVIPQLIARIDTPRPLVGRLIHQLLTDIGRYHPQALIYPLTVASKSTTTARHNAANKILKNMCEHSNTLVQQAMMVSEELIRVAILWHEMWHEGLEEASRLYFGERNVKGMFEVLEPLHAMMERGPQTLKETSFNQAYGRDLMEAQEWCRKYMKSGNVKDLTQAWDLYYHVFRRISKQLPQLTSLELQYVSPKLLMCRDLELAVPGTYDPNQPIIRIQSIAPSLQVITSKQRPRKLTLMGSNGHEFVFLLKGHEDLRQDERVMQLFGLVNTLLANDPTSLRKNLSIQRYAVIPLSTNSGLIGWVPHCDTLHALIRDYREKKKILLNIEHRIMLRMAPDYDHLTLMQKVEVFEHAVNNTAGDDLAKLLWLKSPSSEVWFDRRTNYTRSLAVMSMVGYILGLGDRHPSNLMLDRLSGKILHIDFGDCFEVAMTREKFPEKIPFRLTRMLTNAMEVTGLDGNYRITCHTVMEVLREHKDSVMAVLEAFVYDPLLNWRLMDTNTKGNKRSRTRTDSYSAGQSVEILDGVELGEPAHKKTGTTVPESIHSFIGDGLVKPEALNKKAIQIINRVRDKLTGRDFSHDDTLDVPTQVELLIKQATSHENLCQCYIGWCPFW
T3 sequence (P11309 whole entry): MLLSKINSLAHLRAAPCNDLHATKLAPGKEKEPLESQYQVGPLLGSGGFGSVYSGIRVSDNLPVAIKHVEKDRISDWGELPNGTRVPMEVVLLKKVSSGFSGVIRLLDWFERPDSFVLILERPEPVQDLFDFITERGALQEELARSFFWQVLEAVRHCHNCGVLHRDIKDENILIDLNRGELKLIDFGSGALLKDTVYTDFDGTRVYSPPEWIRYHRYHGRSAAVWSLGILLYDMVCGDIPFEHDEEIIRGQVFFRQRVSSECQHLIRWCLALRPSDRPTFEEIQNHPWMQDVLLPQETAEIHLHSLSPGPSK

By IC50 is commonly meant the point on the concentration scale where inhibition reaches its midpoint. `COc1ncc2cc1NS(=O)(=O)c1cccc(c1)C(=O)NCc1cncc(c1)-c1ccnc3ccc-2cc13` [compound 1]: the IC50 is less than 100 nM in experiment [1] (setting [4]); 2 nM in experiment [1] (setting [5]); less than 100 nM in experiment [2] (setting [6]); 64 nM in experiment [2] (setting [7]); greater than 1000 nM in experiment [3].

For the compound `O=C1NCc2cncc(c2)-c2ccnc3ccc(cc23)-c2cnc(O)c(c2)NS(=O)(=O)c2cccc1c2` [compound 2], the half-maximal inhibitory concentration (IC50) is 100 to 1000 nM in experiment [1] (setting [4]), greater than 1000 nM in experiment [2] (setting [6]) and greater than 1000 nM in experiment [3].

Consider `COc1ncc2cc1NS(=O)(=O)c1cccc(c1)C(=O)NCc1ccc(F)c(c1)-c1ccnc3ccc-2cc13` [compound 4], for which the concentration for half-maximal inhibition (IC50) in experiment [1] (setting [4]) is less than 100 nM; in experiment [1] (setting [5]), 3 nM; in experiment [2] (setting [6]) it was 100 to 1000 nM; in experiment [3], greater than 1000 nM.

As to `COc1ncc2cc1NS(=O)(=O)c1cccc(c1)C(=O)NCc1cccc(c1F)-c1ccnc3ccc-2cc13` [compound 5], the IC50 in experiment [1] (setting [4]) was less than 100 nM; in experiment [1] (setting [5]), 23 nM; in experiment [2] (setting [6]), 100 to 1000 nM; in experiment [3], greater than 1000 nM.

Consider `COc1ncc2cc1NS(=O)(=O)c1cccc(c1)C(=O)NCC1CCN(CC1)c1ccnc3ccc-2cc13` [compound 6], for which the IC50 in experiment [1] (setting [4]) was less than 100 nM; in experiment [1] (setting [5]), 11 nM; in experiment [2] (setting [6]), less than 100 nM; in experiment [2] (setting [7]) it was 72 nM; in experiment [3], greater than 1000 nM.

In the case of `COc1ncc2cc1NS(=O)(=O)c1cccc(c1)C(=O)NCCCCNc1ccnc3ccc-2cc13` [compound 7], the half-inhibitory concentration (IC50) in experiment [1] (setting [4]), in experiment [2] (setting [6]) and in experiment [3] was greater than 1000 nM each time.

As to `COc1ncc2cc1NS(=O)(=O)c1cccc(c1)C(=O)NCc1cncc(c1)-c1cnc3sc-2nn13` [compound 8], the IC50 in experiment [1] (setting [4]) is less than 100 nM; in experiment [1] (setting [5]) it was 7 nM; in experiment [2] (setting [6]) it was greater than 1000 nM; in experiment [3], greater than 1000 nM.

Turning to `O=C1NCc2cncc(c2)-c2cnc3sc(nn23)-c2cnc(O)c(c2)NS(=O)(=O)c2cccc1c2` [compound 9], the IC50 in experiment [1] (setting [4]) was 100 to 1000 nM; in experiment [2] (setting [6]), greater than 1000 nM; in experiment [3], 100 to 1000 nM.

As to `COc1ncc2cc1NS(=O)(=O)c1cccc(c1)C(=O)NCc1cncc(c1)-c1cnn3ccc-2nc13` [compound 11], the IC50 is less than 100 nM in experiment [1] (setting [4]); 0.4 nM in experiment [1] (setting [5]); less than 100 nM in experiment [2] (setting [6]); 4 nM in experiment [2] (setting [7]); greater than 1000 nM in experiment [3].

Turning to `COc1ncc2cc1NS(=O)(=O)c1cccc(c1)C(=O)NCc1cncc(c1)-c1cnc3ccc-2nn13` [compound 12], the IC50 is less than 100 nM in experiment [1] (setting [4]); 0.4 nM in experiment [1] (setting [5]); less than 100 nM in experiment [2] (setting [6]); 5 nM in experiment [2] (setting [7]); greater than 1000 nM in experiment [3].

As to `COc1ncc2cc1NS(=O)(=O)c1cccc(c1)C(=O)NCc1cccc(c1)-c1cnc3ccc-2nn13` [compound 13], the IC50 is less than 100 nM in experiment [1] (setting [4]); 0.4 nM in experiment [1] (setting [5]); less than 100 nM in experiment [2] (setting [6]); 10 nM in experiment [2] (setting [7]); greater than 1000 nM in experiment [3].

For the compound `COc1ncc2cc1NS(=O)(=O)c1cccc(c1)C(=O)NCc1cc(ccn1)-c1ccnc3ccc-2cc13` [compound 15], the half-inhibitory concentration (IC50) is less than 100 nM in experiment [1] (setting [4]), 20 nM in experiment [1] (setting [5]), 100 to 1000 nM in experiment [2] (setting [6]) and greater than 1000 nM in experiment [3].

For the compound `COc1ncc2cc1NS(=O)(=O)c1cccc(c1)C(=O)NCc1cccc(c1)-c1cnc3sc-2nn13` [compound 17], the IC50 was less than 100 nM in experiment [1] (setting [4]), 9 nM in experiment [1] (setting [5]), 100 to 1000 nM in experiment [2] (setting [6]) and greater than 1000 nM in experiment [3].
